Like-named read-outs stand apart in the source and are kept apart here.
Key:
[1] = tested on: MeWo; conditions: cited from earlier work
[2] = tested on: NHDF; set-up: method as in earlier work; conditions: cited from earlier work
[3] = tested on: CT-26; conditions: cited from earlier work
[4] = tested on: HeLa; conditions: cited from earlier work
[5] = tested on: HepG2; conditions: cited from earlier work
[6] = Complex formation with Mg2+ (estimate of farnesyltransferase inhibition), FTIR/UV-vis; conditions: 2/1 compound/MgCl2, 2 days at 37 °C, FTIR and UV-vis; taken as estimate of farnesyltransferase inhibition
Method: To estimate the ability of the studied compounds to inhibit the FT, their ability to bind the Zn^2+ or Mg^2+ ions was investigated by incubation in similar conditions as in vitro antitumor tests. The experiments indicated the ability of TEGylated derivatives to bind Mg^2+ ions, as follows.
After that, all the solutions were lyophilized, and the solid samples obtained were subjected to the FTIR spectroscopy measurements. Then, the mixtures that indicated complex formation were dissolved in DMSO, and their UV-vis spectra were recorded.

[7] = tested on: glioblastoma cell line (U-118); assay: Cytotoxicity MTS assay on U-118; assay type: cell-based, human; conditions: Homo sapiens; U-118, 48 h, MTS; tested 0.01-0.3 mM; read-out: Half maximal inhibition concentration (IC50)
Method: (§1) Cell culture: NHDF, HeLa, HOS, HepG2, MCF7, MeWo and CT-26 cells were cultivated in complete Eagle’s Minimal Essential Medium alpha (aMEM) containing a 1% Penicillin–Streptomycin–Amphotericin B mixture and a 10% fetal bovine serum under 5% CO2 humidified atmosphere at 37 °C. LN-229 cells were cultivated in DMEM with a 1% Penicillin–Streptomycin–Amphotericin B mixture and a 5% fetal bovine serum. U-118 cells were cultivated in DMEM with a 1% Penicillin–Streptomycin–Amphotericin B mixture and a 10% fetal bovine serum. StemPro™ Accutase™ Cell Dissociation Reagent was used for passaging MeWo and U-118 cells, and TrypLE Express was used for all other cell lines.
(§2) The working solutions were prepared by diluting the stock solutions with complete medium so that the final concentration of DMSO in the cell culture was 1%. The working solutions were used for incubation. Control cells were treated only with complete cell culture medium containing 1% DMSO.
(§3) Cytotoxicity MTS assay: In order to perform the MTS assay, cells were placed in culture-treated 96-well plates at densities of 5 × 10^3 cells/well (NHDF and CT-26), 7 × 10^3 cells/well (MCF7) and 10 × 10^3 cells/well (HOS, HeLa, HepG2, MeWo, LN-229, U-118) in 100 μL of a MEM medium/well and allowed to adhere for 24 h. After 24 h, the culture medium was replaced with the tested compound solutions at various concentrations, and the plates were incubated for another 48 h. Before the final reading, 20 μL CellTiter 96® Aqueous One Solution/well was added, and the plates were incubated for 1–4 h. Finally, the absorbance was recorded with a microplate reader at λ = 490 nm. The relative cell viability was expressed as a percentage of the viability of control, and the half maximal inhibitory concentration (IC50) was determined from the graphical representation of the cell viability vs. concentration. Graphical data were expressed as means ± standard error of the mean (S.E.M.). Statistical analysis was made with two-way ANOVA using Tukey’s multiple comparisons test. The difference was considered significant when p < 0.05. Data analysis was performed with GraphPad Prism software version 7.00 for Windows.

[8] = tested on: osteosarcoma (HOS) cells; assay: Cytotoxicity MTS assay on HOS; assay type: cell-based, human; conditions: Homo sapiens, 48 h, tested 0.01-0.3 mM, read-out: Half maximal inhibition concentration (IC50)
Method: as §1, §2, §3

[9] = tested on: malignant melanoma (MeWo) cells; assay: Cytotoxicity MTS assay on MeWo; assay type: cell-based, human; conditions: Homo sapiens; MeWo, 48 h, MTS; tested 0.01-0.3 mM; read-out: Half maximal inhibition concentration (IC50)
Method: as §1, §2, §3

[10] = Solubility test in water with 1% DMSO; assay type: physicochemical; conditions: water with 1% of DMSO, read-out: concentration up to which the compound is soluble
Method: Solubility tests were performed to establish the maximum concentration of the compounds that might be used for in vitro tests by dissolving 0.003 mmol of compound in 1mL of water (H2O) with 1% of DMSO. The amount of solvent was increased until the compound was completely dissolved. The volume of solvent corresponding to the solving point was used to calculate the concentration. The TEGylated compounds were soluble under 0.3 mM (PTF) and 0.2 mM (PTMA, PTEA), and PEGylated compounds were soluble at to a concentration of 2 mM.

[11] = Glutamine imination/transimination (amino acid binding) followed by NMR; conditions: 1/1 molar ratio with glutamine, MEM medium, 37 °C, 48 h
Method: The ability of the studied compounds to bind amino acids by imitation or transamination processes was investigated for glutamine amino acid. To do this, all compounds were incubated in the presence of glutamine for 48 h in a MEM solution to simulate in vitro tests on cancer cell lines. After incubation, the water was removed by lyophilization, and the crude solid was analyzed by NMR. […] Additional information about imine formation was obtained from the H,C-HSQC spectrum (Figure S2). In this type of heteronuclear bidimensional spectrum, a proton–carbon direct bond correlation signal was obtained between the proton resonating at 8.15 ppm and the carbon resonating at 160.5 ppm.
The mixtures were incubated at 37 °C for 48 h in order to simulate the in vitro conditions of antitumor determinations. After the incubation, all the samples were lyophilized, dissolved in DMSO-d6 and subjected to NMR spectroscopy analysis. The samples that indicated the imine formation were further investigated by recording the ^1H, ^15N HMBC and ^1H, ^13C HSQC NMR spectra. The ^1H-NMR and ^1H, ^15N HMBC NMR spectra of the glutamine dissolved in a mixture of 9/1 H2O/D2O were also provided as reference in order to determine which nitrogen was involved in the imine linkage. After the NMR studies, the same samples were diluted with DMSO to obtain a solution of 0.33 mM in order to provide their UV-vis spectra.

[12] = tested on: glioblastoma (LN229) cells; assay: Cytotoxicity MTS assay on LN229; assay type: cell-based, human; conditions: Homo sapiens, LN-229, LN229, 48 h, tested 0.01-0.3 mM, read-out: Half maximal inhibition concentration (IC50)
Method: as §1, §2, §3

[13] = tested on: liver cancer (HepG2) cells; assay: Cytotoxicity MTS assay on HepG2; assay type: cell-based, human; conditions: for IC50: HepG2, 48 h; for Selectivity index (SI): IC50 NHDF / IC50 HepG2
Method: as §1, §2, §3

[14] = tested on: normal human dermal fibroblasts (NHDF); assay: Cytotoxicity MTS assay on normal fibroblasts; assay type: cell-based; conditions: Homo sapiens, 48 h, tested 0.01-0.3 mM, read-out: Half maximal inhibition concentration (IC50)
Method: as §1, §2, §3

[15] = DPPH radical scavenging activity; conditions: DPPH, 0.0019-1 mM
From the text: In this light, the antioxidant activity of the studied phenothiazine derivatives was investigated using DPPH assay, measuring the dependence of the free radical inhibition on the concentration as highlighted by a decreasing of the absorbance of DPPH when the concentration of the compound is increasing. The results, expressed in percentage of inhibition, are represented in Figure 4.
Ex Vivo Radical Scavenging Activity: In order to evaluate antioxidant activity of the studied compounds, a bleaching method of the 1,1-diphenyl-2-picryl hydrazyl (DPPH) radical was used. Briefly, a stock solution of 2 mM of each compound in ethanol was prepared and then diluted to obtain 10 different concentrations from 1 mM to 0.0019 mM using a 96-well plate. The diluted solutions with different concentrations were mixed with an equal volume of ethanolic DPPH solution (0.05 mg/mL), and the mixtures were incubated in the dark at room temperature […] for 1 h. After incubation, the absorbance was read at 517 nm. Inhibition percentage was calculated using Equation (2), where Ac is the absorbance of the control sample (DPPH) and As is the absorbance of the mixtures. All measurements were made in triplicate. I % = (Ac-As)/Ac × 100 (2)

[16] = tested on: cervical carcinoma (HeLa) cells; assay: Cytotoxicity MTS assay on HeLa; assay type: cell-based, human; conditions: for Selectivity index (SI): IC50 NHDF / IC50 HeLa
Method: as §1, §2, §3

[17] = tested on: mouse colon carcinoma cell line (CT26); assay: Cytotoxicity MTS assay on CT-26; assay type: cell-based; conditions: for Selectivity index (SI): IC50 NHDF / IC50 CT-26; for IC50: CT-26, 48 h
Method: as §1, §2, §3

[18] = tested on: breast cancer (MCF7) cells; assay: Cytotoxicity MTS assay on MCF-7; assay type: cell-based, human; conditions: for IC50: Homo sapiens, MCF7, MCF-7, 48 h, MTS, tested 0.01-0.3 mM, read-out: Half maximal inhibition concentration (IC50); for Selectivity index (SI): IC50 NHDF / IC50 MCF7
Method: as §1, §2, §3

[19] = Cytotoxicity MTS assay on normal fibroblasts; assay type: cell-based, human; conditions: human, normal human dermal fibroblasts (NHDF), read-out: cell viability
Method: as §1, §2, §3

[20] = tested on: MCF-7; conditions: reference cell empty, probably merged; cited from earlier work
[21] = tested on: U87-MG; conditions: cell line not clear from layout (U87-MG assumed); cited from earlier work
[22] = tested on: Colo205; conditions: cited from earlier work
[23] = Homo sapiens, MTS, tested 0.01-0.3 mM, read-out: Half maximal inhibition concentration (IC50)
[24] = Homo sapiens, HeLa, 48 h, MTS, tested 0.01-0.3 mM, read-out: Half maximal inhibition concentration (IC50)
[25] = Mus musculus, CT26, MTS, tested 0.01-0.3 mM, read-out: Half maximal inhibition concentration (IC50)

| Compound | ability to bind Mg^2+ ions (in words) [6] | IC50 [7] [µM] | IC50 [8] [µM] | IC50 [9] [µM] | solubility [10] [µM] | IC50 [12] [µM] | IC50 [13, 23] [µM] | Selectivity index (SI) [13] | IC50 [14] [µM] | radical scavenging capacity (in words) [15] | Selectivity index (SI) [16] | Selectivity index (SI) [17] | IC50 [18] [µM] | other results |
| --- | --- | --- | --- | --- | --- | --- | --- | --- | --- | --- | --- | --- | --- | --- |
| O=c1[nH]cc(F)c(=O)[nH]1 [5-Florouracil] | – | – | – | – | – | – | – | – | – | – | – | – | – | IC50 [1]: 61.5 µM; IC50 [2]: 25 µM; IC50 [3]: 300 µM; IC50 ([4]; reference cell empty, probably merged): 677 µM; IC50 [5]: 253 µM |
| COCCOCCOCCN1c2ccccc2Sc2cc(/C=N/CCc3ccc(S(N)(=O)=O)cc3)ccc21 [PTEA] | formation of dative bonds | 170 | > 300 | 239 | < 200 | 183 | 85 | 1.25 | 107 | very low radical scavenging capacity | 6.66 | 1.25 | 138 | ability to bind glutamine by imination/transimination (in words) [11]: direct transimination; IC50 [16, 24]: 15 µM; IC50 [17, 25]: 80 µM |
| COCCOCCOCCN1c2ccccc2Sc2cc(/C=N/Cc3ccc(S(N)(=O)=O)cc3)ccc21 [PTMA, 4-((((10-(triethylene glycol)-10H-phenothiazin-3-yl)methylene)amino)methyl)benzenesulfonamide] | formation of dative bonds | > 300 | > 300 | 287 | < 200 | 219 | 83 | 2.5 | 200 | very low radical scavenging capacity | 6.89 | 2 | 141 | ability to bind glutamine by imination/transimination (in words) [11]: glutamine binding process took places in two steps; IC50 [16, 24]: 29 µM; IC50 [17, 25]: 107 µM; Selectivity index (SI) [18]: 1.42 |
| COCCOCCOCCN1c2ccccc2Sc2cc(C=O)ccc21 [PTF, 10-(triethylene glycol)-10H-phenothiazine-3-carbaldehyde] | dative bond with magnesium | 190 | > 300 | 147 | < 300 | 186 | 50 | 3 | 150 | very low radical scavenging capacity | 10 | 2.38 | 108 | viability at 100 µM ([13]; Homo sapiens, HepG2, 0.1 mM, 48 h, MTS, read-out: cell viability): 27%; IC50 ([13]; Homo sapiens, MTS, read-out: IC50): 52 µM; viability at 48 h, 0.05 mM ([19]; 0.05 mM): 86%; viability at 48 h, 0.2 mM ([19]; 0.2 mM): 33%; viability at 50 µM ([16]; Homo sapiens, HeLa, 0.05 mM, 48 h, MTS, read-out: cell viability): 11%; IC50 ([16]; Homo sapiens, HeLa, 48 h, MTS, read-out: IC50): 15 µM; viability at 100 µM ([17]; Mus musculus, CT26, CT-26, 0.1 mM, 48 h, MTS): 30%; IC50 ([17]; Mus musculus, CT26, MTS, read-out: IC50): 63 µM; Selectivity index (SI) [18]: 1.5 |
| COc1cccc2c1C(=O)c1c(O)c3c(c(O)c1C2=O)C[C@@](O)(C(=O)CO)C[C@@H]3O[C@H]1C[C@H](N)[C@H](O)[C@H](C)O1 [Doxorubicin] | – | – | – | – | – | – | – | – | – | – | – | – | – | IC50 [1]: 88 µM; IC50 [2]: 0.137 µM; IC50 [3]: 10 µM; IC50 [20]: 0.07 µM; IC50 [4]: 0.18 µM; IC50 [5]: 1.03 µM |
| OCCN1CCN(CCCN2c3ccccc3Sc3ccc(Cl)cc32)CC1 [Perphenazine] | – | – | – | – | – | – | – | – | – | – | – | – | – | IC50 [21]: 6.8 µM |
| CN(C)CCCN1c2ccccc2Sc2ccc(Cl)cc21 [Chlorpromazine] | – | – | – | – | – | – | – | – | – | – | – | – | – | IC50 [22]: 10 µM |
